Data as given in US20240252668A1, “ANTIBODY DRUG CONJUGATES AND METHODS FOR MAKING THEREOF” (Novartis AG, priority 2021, published 2024).
Like-named read-outs stand apart in the source and are kept apart here. Starred links: 1 amine or outer side, 2 acyl side, 3 side chain; linkers in the order of their positions; H or OH if unused. Positions of bridges follow the written chain, without caps; N, C: chain ends. Non-standard residues stand in square brackets, D forms with d. Residues, ends and D or L forms follow the SMILES beside them. ξ: configuration not given here. *: point of attachment. Leu(3R-OH,Nα-propionyl) = CCC(=O)N[C@H](C(=O)*)[C@H](O)C(C)C; X1 = CC(C)[C@@H](O[*:3])[C@H](N[*:1])C(=O)[*:2]; X3 = CC(C)C(O[*:3])C(N[*:1])C(=O)[*:2]; ξLeu(3ξ-OH) = CC(C)C(O)C(N)C(=O)O; NMeT = CN[CH](C(=O)O)[CH](C)O; dPhLac = O=C(O)[C@H](O)Cc1ccccc1; PhLac = O=C(O)[CH](O)Cc1ccccc1; NMeA = CN[CH](C)C(=O)O; NMeDha = C=C(NC)C(=O)O

Legend:
[1] = test system: MP41 uveal melanoma cell line (heterozygous GNA11 Q209L); experiment: Cell proliferation assay (resazurin cell viability), MP41 cell line; format: cell-based
Excerpt: (§1) Cell Proliferation Assays with Chromodepsins (compounds (A1) and 2-15): Cell line descriptions: 92.1—uveal melanoma cell line, derived from primary tumor, harboring heterozygous GNAQ Q209L mutation. Purchased from Sigma Aldrich. MP41 (CRL-3297) -uveal melanoma cell line, derived from primary tumor, harboring heterozygous GNA11 Q209L mutation. Purchased from ATCC. A375—skin melanoma cell line, harboring homozygous BRAF V600E mutation. Origin: Cancer Cell Line Encyclopedia (CCLE). SK-MEL-30—skin melanoma cell line, harboring heterozygous NRAS Q61K mutation. Origin: CCLE.
(§2) Cells were cultured in 96-well plates in a total volume of 100 μL at 37° C., 5% CO2 and 95% relative humidity. All cell lines were cultured in RPMI Medium (RPMI 1640 w/o L-glutamine, Bioconcept ref. 1-41F01-I) except A375, DMEM medium (DMEM high glucose (4.5 g/L), Bioconcept, ref. 1-26F01-I), and supplemented with 10% FCS (Bioconcept, ref. 2-01F30-I). Two to three thousand cells were seeded in 96-well plates per well the night before they were treated with compounds (concentration range: from 260 nM to 0.036 nM with ⅓ dilution steps; for 7 the concentration range was increased from 10000 nM to 1.52 nM with ⅓ dilution steps). Cell viability was measured by addition of 10 ul of resazurin per well after 96 hours of treatment. Results were analyzed and plotted using GraphPad Prism 9.0.1.

[2] = test system: A375 skin melanoma cell line (homozygous BRAF V600E); experiment: Cell proliferation assay (resazurin cell viability), A375 cell line; format: cell-based
Excerpt: as §1, §2

[3] = test system: SK-MEL-30 skin melanoma cell line (heterozygous NRAS Q61K); experiment: Cell proliferation assay (resazurin cell viability), SK-MEL-30 cell line; format: cell-based
Excerpt: as §1, §2

[4] = test system: 92.1 and MP41 cell lines (GNAQ/GNA11 mutant uveal melanoma); experiment: Cell proliferation assays, potency ranking over both uveal melanoma lines; format: cell-based; conditions: for loss of potency compared to compound (A1) (growth inhibition): 92.1 and MP41 cell lines
Excerpt: The selective antiproliferative profile of the chromodepsins against GNAQ/GNA11 mutant cell lines is confirmed by the lack of activity against the A375 and SK MEL 30 cell lines that are independent from GNAQ/GNA11 signaling. The potency ranking using the 92.1 and MP41 cell lines is in good agreement with the previously SAR studies. […] These findings are in line with a recent report from Voss et al., highlighting the importance of the “lipophilic anchors” of compound (A1) at the residues varied in compounds 2 and 3, in context of binding kinetics and prolonged residence time on the target proteins. The retained potency of compound 4 indicates a promising exit vector for potential synthetic or biosynthetic modifications of the scaffold. […] The linearized depsipeptides compounds 5-7 lack any antiproliferative activity. In this experimental setup, the cellular permeability of the compounds was a crucial factor contributing to the observed antiproliferative potency. Therefore, all compounds were characterized in a low efflux MCDK assay and determined their exposed polar surface areas (EPSA) in order to assess their passive cellular permeabilities. All macrocyclic chromodepsins that feature the N acyl Hle side chain show similar results concerning their % fraction absorbed (% FA; average ˜60% FA+20%) and EPSA values.
as §1, §2

Gαq proteins = conditions: as has been reported; dynamic mass redistribution; cited from earlier work
MDCK-LE monolayers = experiment: Cell-based transwell assay with MDCK-low efflux monolayers (passive permeability); format: in vitro ADME; conditions: for % Fraction absorbed / % Recovery / Papp A − B: MDCK-LE monolayers; for reduction in % FA: versus macrocyclic chromodepsins with N-acyl-Hle side chain
Experimental: Cell-based transwell assays with MDCK-low efflux monolayers: Compounds (A1) and 2-15 were tested in MDCK cell sub-clones with low effluxt ransporter activity (MDCK-LE) in order to determine their passive permeability. The incubations were performed at a contract research organization as described previously.

[5] = EPSA determination by supercritical fluid chromatography; format: physicochemical; conditions: for EPSA: modified EPSA method, SFC; for change in EPSA (in words): versus macrocyclic chromodepsins with N-acyl-Hle side chain
Experimental: […] by supercritical fluid chromatography: Compounds (A1) and 2-15 were tested by supercritical fluid chromatography (SFC) to determine their ESAPSA values. Samples were analyzed using a Chirex 3014 column ([…], 3×100 mm column, 100 Å pore size; Phenomenex. The starting conditions were 5% methanol containing 20 mM ammonium formate and 95% scCO2. The gradient was increased linearly to 60% methanol containing 20 mM ammonium formate in 4.5 min.

[6] = test system: 92.1 uveal melanoma cell line (heterozygous GNAQ Q209L); experiment: Cell proliferation assay (resazurin cell viability), 92.1 cell line; format: cell-based
Excerpt: as §1, §2

[7] = MP41 (GNA11 Q209L), 96 hours of treatment, read-out: GI50 by cell line, MP41
[8] = MP41 cell line, average of Rep. 1 and 2, read-out: GI50 MP41 Average
[9] = MP41 cell line, replicate 1, read-out: GI50 MP41 Rep. 1
[10] = MP41 cell line, replicate 2, read-out: GI50 MP41 Rep. 2
[11] = A375 (GNAQ/11 wild type), 96 hours of treatment, read-out: GI50 by cell line, A375
[12] = A375 cell line, average of Rep. 1 and 2, read-out: GI50 A375 Average
[13] = A375 cell line, replicate 1, read-out: GI50 A375 Rep. 1
[14] = A375 cell line, replicate 2, read-out: GI50 A375 Rep. 2
[15] = SK-MEL-30 (GNAQ/11 wild type), 96 hours of treatment, read-out: GI50 by cell line, SK-MEL-30
[16] = SK-MEL-30 cell line, average of Rep. 1 and 2, read-out: GI50 SK-MEL-30 Average
[17] = SK-MEL-30 cell line, replicate 1, read-out: GI50 SK-MEL-30 Rep. 1
[18] = SK-MEL-30 cell line, replicate 2, read-out: GI50 SK-MEL-30 Rep. 2
[19] = 92.1 (GNAQ Q209L), 96 hours of treatment, read-out: GI50 by cell line, 92.1
[20] = 92.1 cell line, average of Rep. 1 and 2, read-out: GI50 92.1 Average
[21] = 92.1 cell line, replicate 1, read-out: GI50 92.1 Rep. 1
[22] = 92.1 cell line, replicate 2, read-out: GI50 92.1 Rep. 2

| Compound | GI50 [1, 7] | GI50 [1, 8] | GI50 [1, 9] | GI50 [1, 10] | GI50 [2, 11] | GI50 [2, 12] | GI50 [2, 13] | GI50 [2, 14] | GI50 [3, 15] | GI50 [3, 16] | GI50 [3, 17] | GI50 [3, 18] | % Fraction absorbed (MDCK-LE monolayers) | % Recovery (MDCK-LE monolayers) | Papp A − B (MDCK-LE monolayers) | EPSA [5] | GI50 [6, 19] | GI50 [6, 20] | GI50 [6, 21] | GI50 [6, 22] | also measured |
| --- | --- | --- | --- | --- | --- | --- | --- | --- | --- | --- | --- | --- | --- | --- | --- | --- | --- | --- | --- | --- | --- |
| C=C1C(=O)NC(C)C(=O)N(C)C(C)C(=O)NC(C(O)C(C)C)C(=O)N(C)C(C(C)OC)C(=O)OC(C(C)C)C(NC(C)=O)C(=O)OC(Cc2ccccc2)C(=O)N1C (stereo not drawn) [Compound 12] (Ac-[X3][PhLac][NMeDha]A[NMeA][ξLeu(3ξ-OH)][NMeT](Me); ester 1-C; configuration not given here) | 1.18 µM | 1.18 µM | 0.994 µM | 1.35 µM | > 10 µM | > 10 µM | > 10 µM | > 10 µM | > 10 µM | > 10 µM | > 10 µM | > 10 µM | 9.9% | 83% | 0.55 ×10⁻⁶ cm/s | 106 A^2 | 1.74 µM | 1.74 µM | 1.13 µM | 2.35 µM | loss of potency compared to compound (A1) (growth inhibition) [4]: > 3.000 fold; fold change compared to compound (A1), inhibition of Gαq proteins (Gαq proteins): 16 fold; reduction in % FA (MDCK-LE monolayers): ~5 fold; change in EPSA (in words) [5]: slight changes |
| C=C1C(=O)N[C@@H](C)C(=O)N(C)[C@@H](C)C(=O)N[C@@H]([C@H](OC(=O)[C@@H](NC(=O)CC)[C@H](O)C(C)C)C(C)C)C(=O)N(C)[C@@H]([C@@H](C)OC)C(=O)O[C@H](C)[C@H](NC(C)=O)C(=O)O[C@H](Cc2ccccc2)C(=O)N1C [Compound 14] (Ac-T[dPhLac][NMeDha]A[NMeA][X1](Leu(3R-OH,Nα-propionyl))[NMeT](Me); ester 1-C) | 0.0022 µM | 0.0022 µM | 0.0015 µM | 0.00281 µM | > 0.26 µM | > 0.26 µM | > 0.26 µM | > 0.26 µM | > 0.26 µM | > 0.26 µM | > 0.26 µM | > 0.26 µM | 53.3% | 85% | 3.32 ×10⁻⁶ cm/s | 95 A^2 | 0.0052 µM | 0.0052 µM | 0.00295 µM | 0.00753 µM | loss of potency compared to compound (A1) (growth inhibition) [4]: ~10 fold |
| C=C1C(=O)NC(C)C(=O)N(C)C(C)C(=O)NC(C(O)C(C)C)C(=O)N(C)C(C(C)OC)C(=O)OC(C)C(NC(C)=O)C(=O)OC(Cc2ccccc2)C(=O)N1C (stereo not drawn) [Compound 15] (Ac-T[PhLac][NMeDha]A[NMeA][ξLeu(3ξ-OH)][NMeT](Me); ester 1-C; configuration not given here) | > 10 µM | > 10 µM | > 10 µM | > 10 µM | > 10 µM | > 10 µM | > 10 µM | > 10 µM | > 10 µM | > 10 µM | > 10 µM | > 10 µM | 15% | 90% | 0.79 ×10⁻⁶ cm/s | 109 A^2 | > 10 µM | > 10 µM | > 10 µM | > 10 µM | antiproliferative activity (in words) [4]: some antiproliferative activity observed at the highest doses tested; GI50 ([4]; cell line not specified): > 10 µM; reduction in % FA (MDCK-LE monolayers): ~5 fold; change in EPSA (in words) [5]: slight changes |
